The results in this text go back to patent US20260250318A1, “COMPOSITIONS AND METHODS FOR CROSSING THE BLOOD BRAIN BARRIER” (VOYAGER THERAPEUTICS, INC., priority 2022, published 2026).

Common to all, as to conditions: synthetic library passage 3, intravenous, relative to wild-type AAV9
The test system of assay [1] is brain. The assay is described as follows: NGS fold enrichment of synthetic library (passage 3) in BALB/c mice, first cross-species screen. It is filed as in vivo. The method, boiled down:
(§1)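 Synthetic capsid library (passage 3) was given intravenously […] to NHPs aged 2-4 years and to BALB/c and C57Bl/6 mice (n=3 each, 6-8 weeks). After about 28 days in vivo, tissue RNA was RT-PCR amplified and NGS-sequenced; values are fold enrichment per variant relative to wild-type AAV9.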

Assay [2] concerns brain, spinal cord, and DRG of the NHPs. Nature of the assay: NGS fold enrichment of synthetic library (passage 3) in NHPs, first cross-species screen. Type of assay: in vivo, cynomolgus macaques (Macaca fascicularis). The method, boiled down:
as §1

For assay [3], the system named is brain. Nature of the assay: NGS fold enrichment of synthetic library (passage 3) in C57Bl/6 mice, first cross-species screen. It is filed as in vivo. In a few lines: as §1
[4] abbreviates: RNA from brain of BALB/c mice, NGS.
Where [5] appears, read: RNA from spinal cord of NHPs, NGS.
Setting [6] is: RNA from brain of C57Bl/6 mice, NGS.

Regarding GSGQNQQSHGRIGT, the “Fold enrichment over AAV9 in the brain of Mice (BALB/c)” value (from here on “Fold enrichment over AAV9 … (BALB/c)”) with brain [1] (setting [4]) is reported as 0.455 fold. In addition, the “Fold enrichment over AAV9 in the brain of NHPs” value in assay [2] (RNA from brain of NHPs, NGS) came out at 1.173 fold. Moreover, the “Fold enrichment over AAV9 in the spinal cord of NHPs” value in assay [2] (setting [5]) amounted to 5.117 fold. Besides, in the assay on brain [3] (setting [6]), the “Fold enrichment over AAV9 in the brain of Mice (C57Bl/6)” value (shortened to “Fold enrichment over AAV9 … (C57Bl/6)”) is listed as 0.607 fold.

In the case of GRAPTNLSGQNQQT, in the assay on brain [1] (RNA NGS, brain of BALB/c mice), the “Fold enrichment over AAV9 … (BALB/c)” value was determined as 0.169 fold. Besides, the “Fold enrichment over AAV9 in the brain of NHPs” value in assay [2] (RNA NGS, brain of NHPs) amounted to 1.118 fold. For the same sequence, the “Fold enrichment over AAV9 in the spinal cord of NHPs” value in assay [2] (RNA NGS, spinal cord of NHPs) was 0.687 fold. Moreover, the “Fold enrichment over AAV9 … (C57Bl/6)” value with brain [3] (RNA NGS, brain of C57Bl/6 mice) is on record as 0.757 fold.

GSGQNKQMLSGNTT: in the assay with brain [1] (setting [4]), the “Fold enrichment over AAV9 … (BALB/c)” value is on record as 0.404 fold. For the same sequence, the “Fold enrichment over AAV9 in the brain of NHPs” value in assay [2] (RNA from brain of NHPs, NGS) is 1.410 fold. Also, the “Fold enrichment over AAV9 in the spinal cord of NHPs” value in assay [2] (setting [5]) was found to be 2.219 fold. Besides, the “Fold enrichment over AAV9 … (C57Bl/6)” value with brain [3] (setting [6]) turned out to be 1.074 fold.

Regarding GSGQNGGSSNRQQT, in the assay with brain [1] (RNA NGS, brain of BALB/c mice), the “Fold enrichment over AAV9 … (BALB/c)” value is recorded as 0.844 fold. Also, the “Fold enrichment over AAV9 in the brain of NHPs” value in assay [2] (RNA NGS, brain of NHPs) worked out at 1.109 fold. Further, in assay [2] (RNA NGS, spinal cord of NHPs), the “Fold enrichment over AAV9 in the spinal cord of NHPs” value is reported as 2.594 fold. The “Fold enrichment over AAV9 … (C57Bl/6)” value in the assay on brain [3] (RNA NGS, brain of C57Bl/6 mice) turned out to be 1.255 fold.

Take GSGQNPIRGAMQQT: in the assay with brain [1] (setting [4]), the “Fold enrichment over AAV9 … (BALB/c)” value is listed as 0.427 fold. In addition, in assay [2] (RNA from brain of NHPs, NGS), the “Fold enrichment over AAV9 in the brain of NHPs” value stood at 1.126 fold. For the same sequence, in assay [2] (setting [5]), the “Fold enrichment over AAV9 in the spinal cord of NHPs” value is on record as 1.327 fold. In the assay with brain [3] (setting [6]), the “Fold enrichment over AAV9 … (C57Bl/6)” value amounted to 1.296 fold.

On to GSGTVHAATQNQQT, for which the “Fold enrichment over AAV9 … (BALB/c)” value in the assay on brain [1] (RNA NGS, brain of BALB/c mice) turned out to be 0.476 fold. For the same sequence, in assay [2] (RNA NGS, brain of NHPs), the “Fold enrichment over AAV9 in the brain of NHPs” value worked out at 1.721 fold. Besides, the “Fold enrichment over AAV9 in the spinal cord of NHPs” value in assay [2] (RNA NGS, spinal cord of NHPs) turned out to be 1.676 fold. The “Fold enrichment over AAV9 … (C57Bl/6)” value in the assay with brain [3] (RNA NGS, brain of C57Bl/6 mice) amounted to 0.563 fold.

As to GSGQRGSLTENQQT, the “Fold enrichment over AAV9 … (BALB/c)” value in the assay with brain [1] (setting [4]) came to 0.567 fold. The “Fold enrichment over AAV9 in the brain of NHPs” value in assay [2] (RNA from brain of NHPs, NGS) came to 1.337 fold. In assay [2] (setting [5]), the “Fold enrichment over AAV9 in the spinal cord of NHPs” value is listed as 2.482 fold. Moreover, the “Fold enrichment over AAV9 … (C57Bl/6)” value with brain [3] (setting [6]) is listed as 0.300 fold.

Turning to GSGMLTHTLQNQQT, the “Fold enrichment over AAV9 … (BALB/c)” value in the assay with brain [1] (RNA NGS, brain of BALB/c mice) is 0.199 fold. Besides, in assay [2] (RNA NGS, brain of NHPs), the “Fold enrichment over AAV9 in the brain of NHPs” value was 2.246 fold. In assay [2] (RNA NGS, spinal cord of NHPs), the “Fold enrichment over AAV9 in the spinal cord of NHPs” value was determined as 2.272 fold. In addition, in the assay with brain [3] (RNA NGS, brain of C57Bl/6 mice), the “Fold enrichment over AAV9 … (C57Bl/6)” value stood at 0.496 fold.

For GSGQMQPHVQNQQT, the “Fold enrichment over AAV9 … (BALB/c)” value with brain [1] (setting [4]) is 0.153 fold. In addition, in assay [2] (RNA from brain of NHPs, NGS), the “Fold enrichment over AAV9 in the brain of NHPs” value stood at 1.389 fold. The “Fold enrichment over AAV9 in the spinal cord of NHPs” value in assay [2] (setting [5]) worked out at 9.381 fold. Moreover, the “Fold enrichment over AAV9 … (C57Bl/6)” value with brain [3] (setting [6]) is on record as 0.387 fold.

With GSGQTARNGINQQT, the “Fold enrichment over AAV9 … (BALB/c)” value in the assay on brain [1] (setting [4]) was 0.472 fold. In addition, in assay [2] (RNA from brain of NHPs, NGS), the “Fold enrichment over AAV9 in the brain of NHPs” value is given as 1.192 fold. The “Fold enrichment over AAV9 in the spinal cord of NHPs” value in assay [2] (setting [5]) is given as 2.030 fold. In addition, the “Fold enrichment over AAV9 … (C57Bl/6)” value in the assay on brain [3] (setting [6]) is on record as 1.002 fold.

Take GSVSTHSSGQNQQT: in the assay with brain [1] (RNA NGS, brain of BALB/c mice), the “Fold enrichment over AAV9 … (BALB/c)” value came out at 0.918 fold. For the same sequence, the “Fold enrichment over AAV9 in the brain of NHPs” value in assay [2] (RNA NGS, brain of NHPs) came out at 2.145 fold. The “Fold enrichment over AAV9 in the spinal cord of NHPs” value in assay [2] (RNA NGS, spinal cord of NHPs) worked out at 3.446 fold. In addition, the “Fold enrichment over AAV9 … (C57Bl/6)” value in the assay on brain [3] (RNA NGS, brain of C57Bl/6 mice) came to 1.198 fold.

For GSGQNQQLANMVTT, the “Fold enrichment over AAV9 … (BALB/c)” value in the assay on brain [1] (RNA NGS, brain of BALB/c mice) stood at 0.987 fold. In addition, the “Fold enrichment over AAV9 in the brain of NHPs” value in assay [2] (RNA NGS, brain of NHPs) is recorded as 1.014 fold. In addition, the “Fold enrichment over AAV9 in the spinal cord of NHPs” value in assay [2] (RNA NGS, spinal cord of NHPs) was 1.739 fold. For the same sequence, in the assay with brain [3] (RNA NGS, brain of C57Bl/6 mice), the “Fold enrichment over AAV9 … (C57Bl/6)” value was determined as 1.253 fold.

As to GSAAMSVRGQNQQT, in the assay with brain [1] (RNA NGS, brain of BALB/c mice), the “Fold enrichment over AAV9 … (BALB/c)” value is 0.287 fold. For the same sequence, the “Fold enrichment over AAV9 in the brain of NHPs” value in assay [2] (RNA NGS, brain of NHPs) was 1.029 fold. Also, in assay [2] (RNA NGS, spinal cord of NHPs), the “Fold enrichment over AAV9 in the spinal cord of NHPs” value is 2.386 fold. Further, the “Fold enrichment over AAV9 … (C57Bl/6)” value with brain [3] (RNA NGS, brain of C57Bl/6 mice) was determined as 0.202 fold.
